PMC12156041, “Design, Synthesis and Antiplasmodial Activities of a Library of Fluorine-Based 3-Benzylmenadiones” (Molecules, 2025)
In brackets after ≈: the same amount, converted by molar mass. Several values for one entry are separate records, joined by “and”; a condition that tells them apart may be missing. Equal values may be shown once. Read-outs that look alike come from different tables or passages of the source. Each block holds one molecule with its values, some of them ahead of it.

Experiments:
[1] = tested on: P. falciparum NF54 strain; assay: P. falciparum NF54 [3H]hypoxanthine incorporation assay, 72 h, 0.5% Albumax; type: cell-based; details: Plasmodium falciparum
[2] = tested on: rat myoblast cell line (L6 cells); type: cell-based
Source text: Considering the potency of plasmodione and the observed main metabolite 6-hydroxy–plasmodione eliminated in the urine of PD-treated mice, our primary goal was to introduce a fluorine atom at C-6 of the menadione core to block the process of drug metabolism from occurring in the host’s liver. In this aim, we prioritized the preparation of a library of 6-fluoro-3-benzylmenadiones by investigating the replacement of the trifluoromethyl group by diverse EWG and EDG groups in various loci of the aryl ring. For SAR, all compounds were tested for the inhibition of parasite growth in RBCs infected with a P. falciparum chloroquine-sensitive strain, NF54. The parasites were cultured in vitro according to known conditions. […] The cytotoxicity of the active compounds was assessed against a rat myoblast cell line (L6 cells).
Cell proliferation was assessed with resazurin, and the generally cytotoxic agent podophyllotoxin served as the positive control, as previously reported by the STPH authors M. R. and P. M. in their recently published article.

[3] = tested on: P. falciparum NF54 strain; assay: P. falciparum NF54 24 h assay (species shift assay); type: cell-based; details: Plasmodium falciparum
[4] = tested on: P. berghei (GFP ANKA malaria strain); assay: In vitro efficacy testing with P. berghei, 24 h (species shift assay); type: cell-based; details: Plasmodium berghei
[5] = tested on: P. falciparum NF54 strain; assay: Serum shift assay, P. falciparum NF54 72 h in 50% human serum; details: for IC50: Plasmodium falciparum, NF54, 72 h, read-out: IC50 NF54 72 h, 50% Human Serum
[6] = tested on: P. falciparum NF54 strain; details: cited from earlier work
[7] = tested on: P. berghei GFP ANKA malaria strain; assay: Drug assay in vivo in P. berghei-infected mice; details: p.o. 4 × 50 mg/kg
[8] = Thermodynamic aqueous solubility (shake-flask, PBS-10% DMSO); type: physicochemical; details: PBS with 10% DMSO, aqueous with cosolvent or surfactant or cyclodextrin, PBS pH 7.4, 10% DMSO, 20 °C, read-out: Thermodynamic aq. Solubility in PBS-10% DMSO
Method: Thermodynamic Aqueous Solubility: The shake-flask method enabled us to determine the apparent thermodynamic solubilities of the DMSO stock solutions of the compounds. […] The mixture was equilibrated at 20 °C for 24 h. After centrifugation, the supernatant was injected into an HPLC column coupled to an LC-MS apparatus (with UV–Vis detection) in order to determine the compound concentration. […] These solutions were also injected in order to calibrate the concentration determination process. […] Measurements were performed in duplicate.

[9] = Chromatographic Hydrophobicity Index (CHI) by HPLC; type: physicochemical; details: for CHI: Chromatographic Hydrophobicity Index, lipophilicity index; for chromatographic logD: pH 7.4, read-out: log D7.4
Method: Determination of CHI values: Compound lipophilicity influences permeability and propensity to nonspecific binding to plasma proteins. Although precise, the classical “shake flask” method is not always appropriate for the determination of high hydrophobicity, which can be alternatively measured using the Chromatographic Hydrophobicity Index method. This HPLC-based technique leads to rapid and cheap estimates of partition coefficients. […] A measure of 5 μL was injected onto the HPLC (with UV–Vis detection). […] The measurements were performed in duplicate. […] The CHI is approximately equal to the proportion of acetonitrile in the mobile phase when the compound is eluted from the column.

[10] = tested on: rat myoblast cell line (L6 cells); details: cited from earlier work
[11] = NF54, 72 h, P. falciparum NF54, 72 h, read-out: IC50
[12] = NF54, as stated in text, read-out: IC50 against P. falciparum NF54
[13] = NF54, read-out: IC50 against P. falciparum NF54

IC50 [1, 11]: 171 nM
SMILES: COc1ccc(CC2=C(C)C(=O)c3ccc(F)cc3C2=O)cc1OC [A-a-19]
Tox/L6 [2]: 5.6 µM

IC50 [1, 11]: 316 nM
SMILES: COc1ccc(CC2=C(C)C(=O)c3ccc(F)cc3C2=O)c(OC)c1 [A-a-20]
Tox/L6 [2]: 106.6 µM

IC50 [1, 11]: 70 nM
IC50 [1, 12]: < 100 nM
SMILES: CC1=C(Cc2ccc3c(c2)OCO3)C(=O)c2cc(F)ccc2C1=O [A-a-21]
Tox/L6 [2]: 165.6 µM

IC50 [1, 11]: 340 nM
SMILES: COc1ccc(CC2=C(C)C(=O)c3ccc(F)cc3C2=O)c(OC)c1OC [A-a-25]
Tox/L6 [2]: 215.5 µM

IC50 [1, 11]: 291 nM
SMILES: COc1ccc(OC)c(CC2=C(C)C(=O)c3ccc(F)cc3C2=O)c1 [A-a-26]
Tox/L6 [2]: 91.7 µM

IC50 [1, 11]: 265 nM
SMILES: COc1cc(CC2=C(C)C(=O)c3ccc(F)cc3C2=O)cc(OC)c1OC [A-a-27]
Tox/L6 [2]: 72.4 µM

IC50 [1, 11]: 474 nM
SMILES: CC1=C(Cc2cccs2)C(=O)c2cc(F)ccc2C1=O [A-a-28]
Tox/L6 [2]: 5.8 µM

IC50 [1, 11]: 718 nM
SMILES: CC1=C(CC2CCCCC2)C(=O)c2cc(F)ccc2C1=O [A-a-29]
Tox/L6 [2]: 177.8 µM

SMILES: CC1=C(Cc2ccc(OC(F)(F)F)cc2)C(=O)c2ccccc2C1=O [A-b-3]
IC50 ([1]; NF54, 72 h): 83 nM
IC50 ([1]; NF54, 72 h, read-out: IC50 NF54 72 h, 0.5% Albumax): 83 nM
IC50 ([1]; NF54, 72 h, read-out: IC50 Pf NF54, 72 h): 83 nM
IC50 [1, 13]: < 100 nM
IC50 ([3]; NF54, 24 h, read-out: IC50 Pf NF54, 24 h): 223 nM
IC50 ([4]; 24 h, read-out: IC50 Pb, 24 h): 191 nM
IC50 [5]: 473 nM

IC50 [1, 13]: < 100 nM
SMILES: CC1=C(Cc2ccc(F)cc2)C(=O)c2ccccc2C1=O [A-b-4]
IC50 ([6]; grey line ref 13): 29 nM

IC50 [1, 11]: 2960 nM
SMILES: CC1=C(Cc2ccc(C(F)(F)F)c(F)c2)C(=O)c2ccccc2C1=O [A-b-7]
Tox/L6 [2]: 49.2 µM

SMILES: CC1=C(Cc2ccc(F)c(C(F)(F)F)c2)C(=O)c2ccccc2C1=O [A-b-9, 4′-fluoro-3′-trifluoromethyl-benzylmenadione]
IC50 [1, 11]: 77 nM
IC50 ([1]; NF54, 72 h, read-out: IC50 NF54 72 h, 0.5% Albumax, Table 5B, 0.5% Albumax): 59 nM
IC50 ([1]; NF54, 72 h, read-out: IC50 Pf NF54, 72 h, Table 5A, species shift experiment): 62 nM
IC50 [1, 12]: < 100 nM
IC50 ([3]; NF54, read-out: IC50 Pf NF54, 24 h assay): 143 nM
IC50 ([4]; read-out: IC50 Pb, P. berghei, 24 h assay): 149 nM
Parasitized RBC over 100 ([7]; individual mice, day 4, 50 mg/kg): 70.3 and 49.1 and 52.4
Avg. Mouse Survival [7]: 4.0 days
Parasitized RBC over 100, Avg. ([7]; day 4): 57.27
% of Control ([7]; parasitemia, day 4): 97.23%
Activity (%) ([7]; reduction of parasitemia versus control, day 4): 2.77%
solubility thermodynamic at 24 h [8]: 0.67 ± 0.01 µM (≈ 0.233 µg/mL)
Serum Shift ([5]; 50% human serum versus 0.5% Albumax): 6.1
IC50 [5]: 355 nM

IC50 [1, 12]: > 200 nM
solubility thermodynamic at 24 h [8]: 0.82 ± 0.01 µM (≈ 0.236 µg/mL)
CHI [9]: 97
chromatographic logD [9]: 3.75
SMILES: CC1=C(Cc2ccc(C#N)cc2)C(=O)c2ccccc2C1=O [A-b-10]
IC50 ([6]; grey line ref 8): 374 nM
Tox/L6 ([10]; grey line ref 8): 112.5 µM

IC50 [1, 11]: 312 nM
SMILES: CC1=C(Cc2ccccc2C#N)C(=O)c2ccccc2C1=O [A-b-11]
Tox/L6 [2]: 186.2 µM

IC50 [1, 13]: > 200 nM
SMILES: CC1=C(Cc2ccc([N+](=O)[O-])cc2)C(=O)c2ccccc2C1=O [A-b-12]
IC50 ([6]; grey line ref 8): 201 nM

solubility thermodynamic at 24 h [8]: 1.07 ± 0.02 µM (≈ 0.313 µg/mL)
CHI [9]: 106
chromatographic logD [9]: 4.22
SMILES: COc1ccc(CC2=C(C)C(=O)c3ccccc3C2=O)cc1 [A-b-16]

SMILES: COc1ccc(CC2=C(C)C(=O)c3ccccc3C2=O)cc1OC [A-b-19]
IC50 ([6]; grey line ref 13): 142 nM
Tox/L6 ([10]; grey line ref 13): 5.6 µM

IC50 [1, 11]: 200 nM
SMILES: CC1=C(Cc2ccc3c(c2)OCO3)C(=O)c2ccccc2C1=O [A-b-21]
Tox/L6 [2]: 97.9 µM

solubility thermodynamic at 24 h [8]: 0.59 ± 0.01 µM (≈ 0.19 µg/mL)
CHI [9]: 107
chromatographic logD [9]: 4.26
SMILES: COc1ccc(OC)c(CC2=C(C)C(=O)c3ccccc3C2=O)c1 [A-b-26]
IC50 ([6]; grey line ref 9): 67 nM
Tox/L6 ([10]; grey line ref 9): 158.5 µM

IC50 [1, 11]: 115 nM
SMILES: CC1=C(Cc2cccs2)C(=O)c2ccccc2C1=O [A-b-28]
Tox/L6 [2]: 5.2 µM
